The text below walks through data of ChEMBL document CHEMBL5113502, “Accommodation of ring C expanded deoxyvasicinone in the HDAC inhibitory pharmacophore culminates into a tractable anti-lung cancer agent and pH-responsive nanocarrier” (Eur J Med Chem, 2022).

Type in all cases: functional, cell-based
One assay deals with A549. Briefly: Cytotoxicity against human A549 cells assessed as cell viability after 48 hrs by MTT assay. Particulars: A549, 48 h. A general note: Tetrazolium dyes change colour on reduction, which living cells bring about.
The test system of a further assay is HOP-62. Briefly: Cytotoxicity against human HOP-62 cells assessed as cell viability after 48 hrs by MTT assay. As to conditions: HOP-62, 48 h.
The subject of a further assay is NCI-H727. Briefly: Cytotoxicity against human NCI-H727 cells assessed as cell viability after 48 hrs by MTT assay. As to conditions: NCI-H727, 48 h.

What is called IC50 is the concentration needed to halve the response being measured. As for `O=C(CCCCCCCC(=O)Nc1ccc2nc3n(c(=O)c2c1)CCCCC3)NO`, the IC50 in the assay with A549 worked out at 12 µM. Consider `O=C(/C=C/c1cccc(S(=O)(=O)Nc2ccc3nc4n(c(=O)c3c2)CCCCC4)c1)NO`, for which, in the assay with A549, the IC50 turned out to be 3 µM.

For `O=C(CCCCCCCCC(=O)Nc1ccc2nc3n(c(=O)c2c1)CCCCC3)NO`, the IC50 in the assay with A549 amounted to 11 µM.

As to `O=C(NO)c1ccc(CNc2ccc3nc4n(c(=O)c3c2)CCCCC4)cc1`, the IC50 with A549 was determined as 10 µM. The same measure, in the same setting: under `O=C(CCCCCCC(=O)Nc1ccc2nc3n(c(=O)c2c1)CCCC3)NO` stands 16 µM; under `O=c1c2ccccc2nc2n1CCCCC2`, 6 µM; under `O=C(CCCCCC(=O)Nc1ccc2nc3n(c(=O)c2c1)CCCCC3)NO`, 11 µM. In the case of `O=C(/C=C/c1ccc(CNc2ccc3nc4n(c(=O)c3c2)CCC4)cc1)NO`, the IC50 was 1.21 µM in the assay with A549, 1.78 µM in the assay on HOP-62 and 1.11 µM in the assay with NCI-H727. Take `O=C(CCCCCCC(=O)Nc1ccc2nc3n(c(=O)c2c1)CCCCCC3)NO`: in the assay with A549, the IC50 was 22 µM. The same measure, in the same setting: next, `O=C(CCCCCCC(=O)Nc1ccc2nc3n(c(=O)c2c1)CCC3)NO`: 17 µM. The same measure, in the same setting: next, `O=C(NO)c1ccc(C(=O)Nc2ccc3nc4n(c(=O)c3c2)CCCCC4)cc1`: 9 µM. `O=C(/C=C/c1ccc(CNc2ccc3nc4n(c(=O)c3c2)CCCC4)cc1)NO`: the IC50 is 1.56 µM in the assay with A549, 1.71 µM in the assay on HOP-62 and 1.34 µM in the assay on NCI-H727. For the compound `O=C(CCCCCCC(=O)Nc1ccc2nc3n(c(=O)c2c1)CCCCC3)NO`, in the assay with A549, the IC50 was determined as 14 µM. For `O=C(/C=C/c1ccc(CNc2ccc3nc4n(c(=O)c3c2)CCCCCC4)cc1)NO`, the results for the IC50 in the assay on A549, in the assay with HOP-62 and in the assay with NCI-H727 were 1.89 µM, 1.95 µM and 1.78 µM, respectively.
